Source: patent US20220106301A1, “ACETAMIDO-PHENYLBENZAMIDE DERIVATIVES AND METHODS OF USING THE SAME” (Athenex, Inc., priority 2020, published 2022)
Read-outs that look alike come from different tables or passages of the source.

Tests used:
[1] = molecular target: CYP3A4 (Homo sapiens, UniProt P08684); assay: Determination of CYP3A4 inhibitory activity (human liver microsome, Luciferin-IPA)
Outline: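 Final compound concentrations 37, 111, 333, 1000 and 3000 nM; reaction at 37° C for 11 min, then luciferin detection reagent 5 min at room temperature with luminescence read-out. IC50 from nonlinear regression of dose-response.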

[2] = molecular target: T1, P-glycoprotein (Homo sapiens, UniProt P08183); assay: Determination of P-glycoprotein inhibitory activity (MTT cell growth, MES-SA/DX5 cells with docetaxel or paclitaxel); assay type: cell-based; conditions: compound + 100 nM docetaxel or 200 nM paclitaxel, 3 days
T1 construct: A P-glycoprotein overexpressing cell line derived from the human uterine sarcoma cell line MES-SA; host or cells: MES-SA/DX5 (human uterine sarcoma, doxorubicin-selected)
T1 sequence (P08183 whole entry): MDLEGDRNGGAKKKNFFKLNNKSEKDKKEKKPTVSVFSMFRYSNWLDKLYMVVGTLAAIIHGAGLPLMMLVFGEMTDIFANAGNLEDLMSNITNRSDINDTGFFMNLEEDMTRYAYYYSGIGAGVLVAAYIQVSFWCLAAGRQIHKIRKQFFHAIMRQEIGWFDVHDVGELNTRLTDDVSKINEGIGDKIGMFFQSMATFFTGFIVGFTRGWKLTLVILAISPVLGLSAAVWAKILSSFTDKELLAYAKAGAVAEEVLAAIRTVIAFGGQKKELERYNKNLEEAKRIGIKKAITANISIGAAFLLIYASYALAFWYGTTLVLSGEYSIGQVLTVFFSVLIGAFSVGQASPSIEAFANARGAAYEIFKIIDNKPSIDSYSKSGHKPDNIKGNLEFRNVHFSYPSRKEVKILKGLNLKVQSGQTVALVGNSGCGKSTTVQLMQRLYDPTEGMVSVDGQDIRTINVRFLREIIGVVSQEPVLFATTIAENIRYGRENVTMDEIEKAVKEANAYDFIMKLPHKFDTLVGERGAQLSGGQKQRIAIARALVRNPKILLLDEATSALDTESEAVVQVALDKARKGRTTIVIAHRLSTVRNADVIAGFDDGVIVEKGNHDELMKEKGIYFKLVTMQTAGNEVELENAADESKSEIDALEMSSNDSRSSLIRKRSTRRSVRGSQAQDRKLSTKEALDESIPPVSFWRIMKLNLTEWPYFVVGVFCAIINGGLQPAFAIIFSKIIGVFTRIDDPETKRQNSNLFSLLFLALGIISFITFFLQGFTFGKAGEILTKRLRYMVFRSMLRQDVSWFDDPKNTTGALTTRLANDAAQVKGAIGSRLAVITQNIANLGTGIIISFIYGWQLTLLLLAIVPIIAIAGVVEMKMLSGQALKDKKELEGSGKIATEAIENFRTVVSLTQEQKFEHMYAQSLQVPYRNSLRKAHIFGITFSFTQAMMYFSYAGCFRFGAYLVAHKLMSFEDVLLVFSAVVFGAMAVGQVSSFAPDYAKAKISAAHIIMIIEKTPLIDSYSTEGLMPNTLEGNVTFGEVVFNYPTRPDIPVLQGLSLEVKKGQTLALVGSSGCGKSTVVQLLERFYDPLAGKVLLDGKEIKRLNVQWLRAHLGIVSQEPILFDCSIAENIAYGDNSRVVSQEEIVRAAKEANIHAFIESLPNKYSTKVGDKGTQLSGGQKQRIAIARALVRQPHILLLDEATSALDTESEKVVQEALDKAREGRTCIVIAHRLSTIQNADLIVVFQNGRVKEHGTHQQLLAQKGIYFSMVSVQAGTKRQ
Description: A P-glycoprotein overexpressing cell line derived from the human uterine sarcoma cell line MES-SA (i.e., MES-SA/DX5 cells (ATCC)) was seeded by stepwise exposures to increasing concentrations of doxorubicin, in a 96-well plate at 6,500 cells/100 μL media (McCoy's 5A+10% FBS) in each well. The cells were incubated overnight at 37° C., 5% CO2. […] DMSO was used as a negative control and known P-glycoprotein inhibitor, encequidar methane sulfonic acid monohydrate (HM30181A), was used as a positive control. […] Treated cells were incubated for 3 days at 37° C., 5% CO2.
To value (reflecting the starting number of cells upon Compound treatment) of 3 wells of cells was determined by performing the following steps 1-4 as described below.
1. 10 μL MTT (5 mg/mL in PBS) was added to each well and incubated for 1.5 hours at 37° C., 5% CO2.
2. Culture media was removed and 100 μL of DMSO was added to each well.
3. The plate was gently shook until all purple MTT formazan crystals were dissolved. OD540 was then measured using microplate reader.
4. Cell growth percentage was calculated with the following equation:
Cell growth percentage=(T−T0)/(C−T0)×100%,

[3] = Oral absorption of docetaxel in mice (plasma pharmacokinetics of oral docetaxel co-dosed with compound); assay type: in vivo; conditions: CD-1 mice
Description: In vivo activity of the compounds of the present disclosure was performed as follows: Eighteen 7- to 9-week-old CD-1 mice were fasted overnight prior to drug administration while they were allowed free access to water and were fed 4 hours post dosing. Mice were divided into four groups of three to five […] each.
Blood samples (approx. 30-50 μL) were obtained via peripheral veins of each mouse before (0) and 0.25, 0.5, 1, 2, 4, and 8 hours after docetaxel administration for control group (entry 1, Table C) and at 0.25, 0.5, 1, 2, 4, and 8 hours after docetaxel administration for rest of the groups (entries 2-4, Table C). Blood samples were treated with EDTA-K2 as anti-coagulant and placed on ice until centrifugation. Each blood sample was centrifuged at 4° C., 3000 g for 15 min within 0.5 hour from plasma collection. An aliquot of 20 μL plasma sample was protein precipitated with 100 μL IS (Internal Standard) solution (100 ng/mL labetalol+100 ng/mL tolbutamide in acetonitrile, 1:1), the mixture was vortex-mixed and centrifuged at 4000 rpm for 15 min at 4° C. An aliquot of 80 μL sample was transferred to a sample plate and mixed with 80 μL water, then the plate was shook at 800 rpm for 10 min. 1-10 μL of the supernatant was then injected for LC-MS/MS analysis under the following conditions:
MS conditions: ESI, positive;
Column: Waters ACQUITY UPLC BEH C18 2.1×50 mm, 1.7 μm;
Mobile phase A: 0.1% formic acid in water; and
Mobile phase B: 0.1% formic acid in acetonitrile.

[4] = CYP3A4 IC50 (nM), 37° C. 11 minutes
[5] = oral docetaxel 10 mg/kg with oral compound (Compound 16 80 mg/kg, Compound 48 20 mg/kg, encequidar 10 mg/kg), plasma

Sequence of CYP3A4 (P08684 whole entry): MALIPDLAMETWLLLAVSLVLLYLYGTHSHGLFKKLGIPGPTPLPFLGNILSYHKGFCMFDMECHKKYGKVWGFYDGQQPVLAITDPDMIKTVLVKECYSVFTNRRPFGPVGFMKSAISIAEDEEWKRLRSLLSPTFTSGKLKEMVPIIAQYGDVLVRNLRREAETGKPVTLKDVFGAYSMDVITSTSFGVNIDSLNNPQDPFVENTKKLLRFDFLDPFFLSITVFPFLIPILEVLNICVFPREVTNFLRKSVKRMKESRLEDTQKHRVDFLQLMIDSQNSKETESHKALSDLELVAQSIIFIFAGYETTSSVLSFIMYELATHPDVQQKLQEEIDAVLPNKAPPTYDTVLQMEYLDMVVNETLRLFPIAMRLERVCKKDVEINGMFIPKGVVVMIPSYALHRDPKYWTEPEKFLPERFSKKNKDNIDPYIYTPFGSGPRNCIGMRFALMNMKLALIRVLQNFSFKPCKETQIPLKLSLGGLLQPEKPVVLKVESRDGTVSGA

Row | IC50 [1, 4] [nM] | Structure (SMILES) | also measured
1 | 250 to 500 | COc1cncc(CN(CCc2ccc(NC(=O)c3ccc(C(=O)OCCN4CCN(C)CC4)cc3NC(=O)c3cc(=O)c4ccccc4o3)cc2)Cc2ccc3c(cnn3C)c2)c1 [Compound 272] | 
2 | > 1000 | COC(=O)c1ccc(C(=O)Nc2ccc(CCN(C)Cc3ccc4c(cnn4C)c3)cc2)c(NC(=O)c2ccccn2)c1 [Compound 277] | 
3 | 250 to 500 | COc1cncc(CN(CCc2ccc(NC(=O)c3ccc(C(=O)NS(=O)(=O)N(C)C)cc3NC(=O)c3cc(=O)c4ccccc4o3)cc2)Cc2ccc3c(cnn3C)c2)c1 [Compound 278] | 
4 | 100 to 250 | CN(CCc1ccc(NC(=O)c2ccc(C(=O)OCc3cscn3)cc2NC(=O)c2cc(=O)c3ccccc3o2)cc1)Cc1ccc2c(cnn2C)c1 [Compound 280] | 
5 | > 1000 | COC(=O)c1ccc(C(=O)Nc2ccc(CCN(C)Cc3ccc4c(cnn4C)c3)cc2)c(NC(=O)c2cnc3ccccc3c2)c1 [Compound 281] | 
6 | 500 to 1000 | CN(CCc1ccc(NC(=O)c2ccc(C(=O)OCc3cncs3)cc2NC(=O)c2cnc3ccccc3c2)cc1)Cc1ccc2c(cnn2C)c1 [Compound 283] | 
7 |  | COc1cc2c(cc1OC)CN(CCc1ccc(-n3nnc(-c4cc(OC)c(OC)cc4NC(=O)c4cc(=O)c5ccccc5o4)n3)cc1)CC2.CS(=O)(=O)O.O [encequidar methane sulfonic acid monohydrate] | EC50 [2]: < 100 nM; IC50 ([1]; read-out: CYP3A4 IC50, 37° C. 11 minutes): > 1000 nM; AUC0-inf of oral docetaxel (area under the curve of plasma concentration) [3, 5]: 698 ± 238 ng·h/mL; Cmax of oral docetaxel (maximum plasma concentration) [3, 5]: 316 ± 98.1 ng/mL; Tmax of oral docetaxel (time at the maximum plasma concentration) [3, 5]: 42 ± 16.4 min; increase in the systemic bioavailability of orally dosed docetaxel ([3]; as compared to when there was no inhibitor): 3.4 fold
